Biological target: bovine cardiac myofibrils (full-length cardiac myosin ATPase in the native sarcomere) (Bos taurus (Bovine), UniProt Q9BE39)
Experiment: Skinned bovine cardiac myofibril ATPase assay (PK/LDH-coupled)
Format: biochemical
Conditions: Ca2+ activating to 75% of maximal rate; for CDMF75 IC15: concentration giving 15% inhibition; for IC50: read-out: CDMF75 IC50
Method in brief: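 Inhibition of steady-state ATPase read at 340 nm through a PK/LDH-coupled NADH system (0.5 mM NADH, 1.5 mM PEP). Detergent-skinned bovine cardiac myofibrils, 1 mg/mL, were tested at pH 6.8 in PIPES/MgCl2 with 50 μM ATP and calcium adjusted to give pCa50 or pCa75 activation.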

Chain of bovine cardiac myofibrils (full-length cardiac myosin ATPase in the native sarcomere) (Q9BE39 whole entry): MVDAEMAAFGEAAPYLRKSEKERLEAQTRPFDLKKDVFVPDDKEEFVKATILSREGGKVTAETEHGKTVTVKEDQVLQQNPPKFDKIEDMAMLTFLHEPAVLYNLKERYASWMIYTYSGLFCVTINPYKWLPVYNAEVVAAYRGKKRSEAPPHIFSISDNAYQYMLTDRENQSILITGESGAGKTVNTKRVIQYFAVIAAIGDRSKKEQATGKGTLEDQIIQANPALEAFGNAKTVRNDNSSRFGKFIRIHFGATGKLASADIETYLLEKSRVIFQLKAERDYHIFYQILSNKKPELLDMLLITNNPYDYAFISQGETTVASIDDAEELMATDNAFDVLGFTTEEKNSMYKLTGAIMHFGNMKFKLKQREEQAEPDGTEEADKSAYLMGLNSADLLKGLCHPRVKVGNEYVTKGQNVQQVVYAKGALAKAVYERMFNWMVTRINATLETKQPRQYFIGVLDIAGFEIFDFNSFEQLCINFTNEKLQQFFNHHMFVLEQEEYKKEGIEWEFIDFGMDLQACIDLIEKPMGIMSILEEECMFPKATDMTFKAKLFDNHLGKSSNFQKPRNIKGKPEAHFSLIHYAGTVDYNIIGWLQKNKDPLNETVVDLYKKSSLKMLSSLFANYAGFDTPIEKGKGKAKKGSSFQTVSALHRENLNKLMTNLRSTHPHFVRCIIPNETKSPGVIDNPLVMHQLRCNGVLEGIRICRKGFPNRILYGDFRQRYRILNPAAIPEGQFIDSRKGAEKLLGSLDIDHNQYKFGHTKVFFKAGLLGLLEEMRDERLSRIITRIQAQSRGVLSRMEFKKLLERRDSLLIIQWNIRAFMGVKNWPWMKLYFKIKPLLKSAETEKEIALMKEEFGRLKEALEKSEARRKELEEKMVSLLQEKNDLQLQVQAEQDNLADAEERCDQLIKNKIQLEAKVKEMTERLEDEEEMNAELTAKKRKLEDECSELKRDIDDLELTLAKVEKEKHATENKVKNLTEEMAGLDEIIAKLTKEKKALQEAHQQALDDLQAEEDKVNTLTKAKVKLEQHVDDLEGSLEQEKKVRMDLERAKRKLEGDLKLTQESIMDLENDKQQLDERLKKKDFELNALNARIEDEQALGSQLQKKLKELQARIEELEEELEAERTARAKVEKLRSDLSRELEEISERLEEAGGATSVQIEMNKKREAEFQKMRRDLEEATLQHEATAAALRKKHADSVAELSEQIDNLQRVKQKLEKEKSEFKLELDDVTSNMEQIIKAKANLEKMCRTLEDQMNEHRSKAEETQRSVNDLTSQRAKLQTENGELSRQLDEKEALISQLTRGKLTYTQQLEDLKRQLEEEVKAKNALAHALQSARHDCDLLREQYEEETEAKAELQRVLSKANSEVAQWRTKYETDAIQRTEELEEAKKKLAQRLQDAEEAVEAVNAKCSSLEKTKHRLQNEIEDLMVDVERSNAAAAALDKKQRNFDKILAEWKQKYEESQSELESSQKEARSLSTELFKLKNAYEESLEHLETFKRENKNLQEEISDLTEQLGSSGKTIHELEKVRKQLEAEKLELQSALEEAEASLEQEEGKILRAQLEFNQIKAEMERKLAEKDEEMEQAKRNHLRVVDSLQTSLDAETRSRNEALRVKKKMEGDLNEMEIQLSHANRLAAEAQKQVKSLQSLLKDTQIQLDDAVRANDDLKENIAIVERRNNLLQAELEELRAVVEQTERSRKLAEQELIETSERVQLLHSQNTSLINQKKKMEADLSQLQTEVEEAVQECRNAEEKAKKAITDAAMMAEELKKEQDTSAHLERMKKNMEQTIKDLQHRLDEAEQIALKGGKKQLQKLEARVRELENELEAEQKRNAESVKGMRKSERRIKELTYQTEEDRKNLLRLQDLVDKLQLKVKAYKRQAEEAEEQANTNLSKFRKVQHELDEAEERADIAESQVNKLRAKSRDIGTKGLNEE
Chain of bovine cardiac myofibrils (full-length cardiac myosin ATPase in the native sarcomere) (P85100 whole entry partner): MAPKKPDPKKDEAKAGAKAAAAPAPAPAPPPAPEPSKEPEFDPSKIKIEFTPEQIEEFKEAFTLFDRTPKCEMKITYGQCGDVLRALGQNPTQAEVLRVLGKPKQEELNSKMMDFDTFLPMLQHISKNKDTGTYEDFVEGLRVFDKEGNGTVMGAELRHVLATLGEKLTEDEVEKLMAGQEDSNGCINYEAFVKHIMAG
Chain of bovine cardiac myofibrils (full-length cardiac myosin ATPase in the native sarcomere) (Q3SZE5 whole entry partner): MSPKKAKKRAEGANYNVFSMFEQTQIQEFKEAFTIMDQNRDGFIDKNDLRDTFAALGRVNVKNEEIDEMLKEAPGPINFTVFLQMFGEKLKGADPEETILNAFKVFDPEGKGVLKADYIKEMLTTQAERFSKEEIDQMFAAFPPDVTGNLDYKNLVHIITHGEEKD

`Cc1nc(-c2ccc3c(c2)CC[C@H]3NC(=O)c2nncn2C)no1` [Compound 164, (R)-4-methyl-N-(5-(5-methyl-1,2,4-oxadiazol-3-yl)-2,3-dihydro-1H-inden-1-yl)-4H-1,2,4-triazole-3-carboxamide] was tested, and the “CDMF75 IC15” value was 8.2 µM and the IC50 was greater than 39.2 µM.

In the case of `Cn1cnnc1C(=O)N[C@@H]1CCc2cc(-c3noc(C(F)F)n3)ccc21` [Compound 165, (R)-N-(5-(5-(difluoromethyl)-1,2,4-oxadiazol-3-yl)-2,3-dihydro-1H-inden-1-yl)-4-methyl-4H-1,2,4-triazole-3-carboxamide], the “CDMF75 IC15” value is reported as 4.6 µM and the IC50 is reported as 23.5 µM.

With `Cc1nc(-c2ccc3c(c2)OCC3NC(=O)c2cnc(C)o2)no1` (centres unmarked) [Compound 166, 2-methyl-N-(6-(5-methyl-1,2,4-oxadiazol-3-yl)-2,3-dihydrobenzofuran-3-yl)oxazole-5-carboxamide] the “CDMF75 IC15” value was 2.0 µM and the IC50 was 7 µM.

With `Cc1nc(-c2ccc3c(c2)OC[C@H]3NC(=O)c2cnc(C)o2)no1` [Compound 167, (S)-2-methyl-N-(6-(5-methyl-1,2,4-oxadiazol-3-yl)-2,3-dihydrobenzofuran-3-yl)oxazole-5-carboxamide] the “CDMF75 IC15” value was 1.0 µM and the IC50 was 3.8 µM.

For `Cc1cc(C(=O)NC2CCc3cc(-c4cc(C(F)F)on4)ccc32)ccn1` (centres unmarked) [Compound 168, N-(5-(5-(difluoromethyl)isoxazol-3-yl)-2,3-dihydro-1H-inden-1-yl)-2-methylisonicotinamide], the “CDMF75 IC15” value was 1.1 µM and the IC50 was 3.8 µM.

For `Cc1cc(C(=O)N[C@@H]2CCc3cc(-c4cc(C(F)F)on4)ccc32)ccn1` [Compound 169, (R)-N-(5-(5-(difluoromethyl)isoxazol-3-yl)-2,3-dihydro-1H-inden-1-yl)-2-methylisonicotinamide], the “CDMF75 IC15” value was 0.5 µM and the IC50 was 1.8 µM.

`Cc1cc(C(=O)NC2CCc3cc(-c4cc(C(F)F)no4)ccc32)ccn1` (centres unmarked) [Compound 170, N-(5-(3-(difluoromethyl)isoxazol-5-yl)-2,3-dihydro-1H-inden-1-yl)-2-methylisonicotinamide] was tested, and the “CDMF75 IC15” value was 3.8 µM and the IC50 was 15.9 µM.

In the case of `Cc1cc(C(=O)N[C@@H]2CCc3cc(-c4cc(C(F)F)no4)ccc32)ccn1` [Compound 171, (R)-N-(5-(3-(difluoromethyl)isoxazol-5-yl)-2,3-dihydro-1H-inden-1-yl)-2-methylisonicotinamide], the “CDMF75 IC15” value is reported as 1.7 µM and the IC50 is reported as 6.9 µM.

`Cc1cc(C(=O)N[C@@H]2CCc3cc(-c4nc(C)co4)ccc32)ccn1` [Compound 172, (R)-2-methyl-N-(5-(4-methyloxazol-2-yl)-2,3-dihydro-1H-inden-1-yl)isonicotinamide] was tested, and the “CDMF75 IC15” value was 8.1 µM and the IC50 was greater than 39.2 µM.

In the case of `Cc1cc(C(=O)NC2CCc3cc(-c4nc(C)co4)ccc32)ccn1` (centres unmarked) [Compound 173, 2-methyl-N-(5-(4-methyloxazol-2-yl)-2,3-dihydro-1H-inden-1-yl)isonicotinamide], the “CDMF75 IC15” value is reported as 39.2 µM and the IC50 is reported as greater than 39.2 µM.

`Cn1nccc1C(=O)N[C@@H]1CCc2cc(-c3noc(C4CCO4)n3)ccc21` (stereo partly drawn) [Compound 174, 1-methyl-N-((1R)-5-(5-(oxetan-2-yl)-1,2,4-oxadiazol-3-yl)-2,3-dihydro-1H-inden-1-yl)-1H-pyrazole-5-carboxamide] was tested, and the “CDMF75 IC15” value was 1.1 µM and the IC50 was 3.8 µM.

In the case of `COCc1nc(-c2ccc3c(c2)CC[C@H]3NC(=O)c2ccnn2C)no1` [Compound 175, (R)-N-(5-(5-(methoxymethyl)-1,2,4-oxadiazol-3-yl)-2,3-dihydro-1H-inden-1-yl)-1-methyl-1H-pyrazole-5-carboxamide], the “CDMF75 IC15” value is reported as 0.4 µM and the IC50 is reported as 1.4 µM.

For `COCc1nc(-c2ccc3c(c2)CC[C@H]3NC(=O)c2ccnc(C)c2)no1` [Compound 176, (R)-N-(5-(5-(methoxymethyl)-1,2,4-oxadiazol-3-yl)-2,3-dihydro-1H-inden-1-yl)-2-methylisonicotinamide], the “CDMF75 IC15” value was 1.2 µM and the IC50 was 4.5 µM.

In the case of `COCc1nc(-c2ccc3c(c2)CC[C@H]3NC(=O)c2ocnc2C)no1` [Compound 177, (R)-N-(5-(5-(methoxymethyl)-1,2,4-oxadiazol-3-yl)-2,3-dihydro-1H-inden-1-yl)-4-methyloxazole-5-carboxamide], the “CDMF75 IC15” value is reported as 0.5 µM and the IC50 is reported as 1.8 µM.

In the case of `COCc1nc(-c2ccc3c(c2)CC[C@H]3NC(=O)c2cnn(C)c2)no1` [Compound 178, (R)-N-(5-(5-(methoxymethyl)-1,2,4-oxadiazol-3-yl)-2,3-dihydro-1H-inden-1-yl)-1-methyl-1H-pyrazole-4-carboxamide], the “CDMF75 IC15” value is reported as 1.9 µM and the IC50 is reported as 6.8 µM.

`COCc1nc(-c2ccc3c(c2)CC[C@H]3NC(=O)c2cc(C)nn2C)no1` [Compound 179, (R)-N-(5-(5-(methoxymethyl)-1,2,4-oxadiazol-3-yl)-2,3-dihydro-1H-inden-1-yl)-1,3-dimethyl-1H-pyrazole-5-carboxamide] was tested, and the “CDMF75 IC15” value was 0.7 µM and the IC50 was 2.2 µM.

For `COCc1nc(-c2ccc3c(c2)CC[C@H]3NC(=O)c2oc(C)nc2C)no1` [Compound 180, (R)-N-(5-(5-(methoxymethyl)-1,2,4-oxadiazol-3-yl)-2,3-dihydro-1H-inden-1-yl)-2,4-dimethyloxazole-5-carboxamide], the “CDMF75 IC15” value was 1.7 µM and the IC50 was 5.8 µM.

In the case of `COCc1nc(-c2ccc3c(c2)CC[C@H]3NC(=O)c2cnn(C)c2C)no1` [Compound 181, (R)-N-(5-(5-(methoxymethyl)-1,2,4-oxadiazol-3-yl)-2,3-dihydro-1H-inden-1-yl)-1,5-dimethyl-1H-pyrazole-4-carboxamide], the “CDMF75 IC15” value is reported as 1.1 µM and the IC50 is reported as 4 µM.

With `COCc1nc(-c2ccc3c(c2)CC[C@H]3NC(=O)c2cn(C)nc2C)no1` [Compound 182, (R)-N-(5-(5-(methoxymethyl)-1,2,4-oxadiazol-3-yl)-2,3-dihydro-1H-inden-1-yl)-1,3-dimethyl-1H-pyrazole-4-carboxamide] the “CDMF75 IC15” value was 1.0 µM and the IC50 was 4.1 µM.

With `Cn1cc(C(=O)N[C@@H]2CCc3cc(-c4noc(C5CC5)n4)ccc32)cn1` [Compound 185, (R)-N-(5-(5-cyclopropyl-1,2,4-oxadiazol-3-yl)-2,3-dihydro-1H-inden-1-yl)-1-methyl-1H-pyrazole-4-carboxamide] the “CDMF75 IC15” value was 0.8 µM and the IC50 was 2.7 µM.

With `Cn1cc(C(=O)N[C@@H]2CCc3cc(-c4noc(C(F)F)n4)ccc32)cn1` [Compound 186, (R)-N-(5-(5-(difluoromethyl)-1,2,4-oxadiazol-3-yl)-2,3-dihydro-1H-inden-1-yl)-1-methyl-1H-pyrazole-4-carboxamide] the “CDMF75 IC15” value was 0.7 µM and the IC50 was 2.4 µM.

`Cc1cc(C(=O)NC2COc3cc(-c4noc(C)n4)cnc32)ccn1` (centres unmarked) [Compound 187, 2-methyl-N-(6-(5-methyl-1,2,4-oxadiazol-3-yl)-2,3-dihydrofuro[3,2-b]pyridin-3-yl)isonicotinamide] was tested, and the “CDMF75 IC15” value was 11.5 µM and the IC50 was greater than 39.2 µM.

With `Cc1cc(C(=O)N[C@@H]2COc3cc(-c4noc(C)n4)cnc32)ccn1` [Compound 188, (S)-2-methyl-N-(6-(5-methyl-1,2,4-oxadiazol-3-yl)-2,3-dihydrofuro[3,2-b]pyridin-3-yl)isonicotinamide] the “CDMF75 IC15” value was 5.3 µM and the IC50 was 23.6 µM.

In the case of `Cn1nnnc1C(=O)N[C@@H]1CCc2cc(-c3noc(C(F)F)n3)ccc21` [Compound 189, (R)-N-(5-(5-(difluoromethyl)-1,2,4-oxadiazol-3-yl)-2,3-dihydro-1H-inden-1-yl)-1-methyl-1H-tetrazole-5-carboxamide], the “CDMF75 IC15” value is reported as 1.4 µM and the IC50 is reported as 5.1 µM.

In the case of `Cc1cc(C(=O)NC2COc3cc(-c4noc(C(F)F)n4)ccc32)n(C)n1` (centres unmarked) [Compound 190, N-(6-(5-(difluoromethyl)-1,2,4-oxadiazol-3-yl)-2,3-dihydrobenzofuran-3-yl)-1,3-dimethyl-1H-pyrazole-5-carboxamide], the “CDMF75 IC15” value is reported as 0.6 µM and the IC50 is reported as 2 µM.

With `Cc1cc(C(=O)N[C@@H]2COc3cc(-c4noc(C(F)F)n4)ccc32)n(C)n1` [Compound 191, (S)-N-(6-(5-(difluoromethyl)-1,2,4-oxadiazol-3-yl)-2,3-dihydrobenzofuran-3-yl)-1,3-dimethyl-1H-pyrazole-5-carboxamide] the “CDMF75 IC15” value was 0.3 µM and the IC50 was 0.9 µM.

For `Cc1nc(C)c(C(=O)NC2COc3cc(-c4noc(C(F)F)n4)ccc32)o1` (centres unmarked) [Compound 192, N-(6-(5-(difluoromethyl)-1,2,4-oxadiazol-3-yl)-2,3-dihydrobenzofuran-3-yl)-2,4-dimethyloxazole-5-carboxamide], the “CDMF75 IC15” value was 1.0 µM and the IC50 was 3.8 µM.

`Cc1nc(C)c(C(=O)N[C@@H]2COc3cc(-c4noc(C(F)F)n4)ccc32)o1` [Compound 193, (S)-N-(6-(5-(difluoromethyl)-1,2,4-oxadiazol-3-yl)-2,3-dihydrobenzofuran-3-yl)-2,4-dimethyloxazole-5-carboxamide] was tested, and the “CDMF75 IC15” value was 0.5 µM and the IC50 was 2.1 µM.

`Cc1cc(C(=O)N[C@@H]2CCc3cc(-c4nc(C)no4)ccc32)n(C)n1` [Compound 194, (R)-1,3-dimethyl-N-(5-(3-methyl-1,2,4-oxadiazol-5-yl)-2,3-dihydro-1H-inden-1-yl)-1H-pyrazole-5-carboxamide] was tested, and the “CDMF75 IC15” value was 0.7 µM and the IC50 was 2.6 µM.

In the case of `Cc1cc(C(=O)NC2COc3cc(-c4noc(C(F)F)n4)cnc32)ccn1` (centres unmarked) [Compound 195, N-(6-(5-(difluoromethyl)-1,2,4-oxadiazol-3-yl)-2,3-dihydrofuro[3,2-b]pyridin-3-yl)-2-methylisonicotinamide], the “CDMF75 IC15” value is reported as 10.1 µM and the IC50 is reported as greater than 39.2 µM.

For `Cc1cc(C(=O)N[C@@H]2COc3cc(-c4noc(C(F)F)n4)cnc32)ccn1` [Compound 196, (S)—N-(6-(5-(difluoromethyl)-1,2,4-oxadiazol-3-yl)-2,3-dihydrofuro[3,2-b]pyridin-3-yl)-2-methylisonicotinamide], the “CDMF75 IC15” value was 4.5 µM and the IC50 was 17.4 µM.

From patent publication US12065436B2, “Cardiac sarcomere inhibitors” (Cytokinetics, Inc., priority 2018, dated 2024)
